Our source for the IC50, Ratio IC50 and solubility values is ChEMBL document CHEMBL1145573, “Lead identification to generate isoquinolinedione inhibitors of insulin-like growth factor receptor (IGF-1R) for potential use in cancer treatment” (Bioorg Med Chem Lett, 2008).

Series [1] in a line: Inhibition of IGFR.
Series [2] is described as follows: Ratio of IC50 for IR to IC50 for IGFR.
A short description of series [3]: Aqueous solubility at pH 7.4. The series is classed as physicochemical.

Structures are written as SMILES. pIC50: −log10 of the molar value. ≈ marks a conversion by molar mass, not a printed value. A value given as a limit tells only on which side of the number the result lay.

In turn, `CC1CN(c2ccc(N/C=C3\C(=O)NC(=O)c4ccc(-c5ccoc5)cc43)cc2)CC(C)N1` (stereo unspecified) had a pIC50 in series [1] of 6.20. In addition, the Ratio IC50 in series [2] was 1.
The molecule `CC(=O)c1cccc(Nc2ccc3c(c2)/C(=C/Nc2ccc(N4CCN(C)CC4)cc2)C(=O)NC3=O)c1` showed a pIC50 in series [1] of 6.50. The molecule further came in with a solubility in series [3] of 1000 µg/mL (≈ 2020 µM). The Ratio IC50 in series [2] came to 1.6.
For `N#Cc1ccccc1Nc1ccc2c(c1)/C(=C/Nc1ccc(CN3CCCCC3)cc1)C(=O)NC2=O`, the pIC50 in series [1] was 5.38.
For `O=C1NC(=O)c2ccc(Br)cc2/C1=C/Nc1ccc(CN2CCCCC2)cc1`, the pIC50 in series [1] is 5.54.
`N#Cc1ccc(Nc2ccc3c(c2)/C(=C/Nc2ccc(CN4CCCCC4)cc2)C(=O)NC3=O)cc1`: the pIC50 in series [1] is 5.88.
`O=C1NC(=O)c2ccc(Nc3cccc(Cl)c3)cc2/C1=C/Nc1ccc(CN2CCCCC2)cc1` showed a pIC50 in series [1] of 5.62.
For `CN(C)Cc1ccc(N/C=C2\C(=O)NC(=O)c3ccc(Br)cc32)cc1`, the pIC50 in series [1] is 5.14. Further, the Ratio IC50 in series [2] came out at 0.58.
As for `CC(=O)c1ccc(Nc2ccc3c(c2)/C(=C/Nc2ccc(CN4CCCCC4)cc2)C(=O)NC3=O)cc1`, the pIC50 in series [1] was 5.23.
Take `COc1ccccc1Nc1ccc2c(c1)/C(=C/Nc1ccc(CN3CCCCC3)cc1)C(=O)NC2=O`: the pIC50 in series [1] was 6.21.
Consider `CN1CCN(c2ccc(N/C=C3\C(=O)NC(=O)c4ccc(NS(=O)(=O)c5ccccc5)cc43)cc2)CC1`, for which, in series [1], the pIC50 was 6.08. Besides, the Ratio IC50 in series [2] stood at 0.83.
`Nc1cccc(Nc2ccc3c(c2)/C(=C/Nc2ccc(CN4CCCCC4)cc2)C(=O)NC3=O)c1`: the negative-log IC50 (pIC50) in series [1] was less than 5.00.
As for `CN(C)Cc1ccc(N/C=C2\C(=O)NC(=O)c3ccc(Nc4ccccc4)cc32)cc1`, the pIC50 in series [1] is 6.04. Further, the Ratio IC50 in series [2] is 0.62.
The matching figures for `Cc1ccc(Nc2ccc3c(c2)/C(=C/Nc2ccc(CN4CCCCC4)cc2)C(=O)NC3=O)cc1`: 6.30 and 1.14.
Regarding `CC(=O)c1cccc(Nc2ccc3c(c2)/C(=C/Nc2ccc(N4CC(C)NC(C)C4)cc2)C(=O)NC3=O)c1` (stereo unspecified), the negative logarithm of the IC50 (pIC50) in series [1] was 6.27. Moreover, in series [2], the Ratio IC50 amounted to 0.85.
Molecule `O=C1NC(=O)c2ccc(Nc3cccc(F)c3)cc2/C1=C/Nc1ccc(CN2CCCCC2)cc1` had a pIC50 in series [1] of 5.58.
On the same count and under the same terms, to `O=C1NC(=O)c2ccc(Nc3cccc(Cl)c3)cc2/C1=C/Nc1ccccc1` belongs less than 5.00; to `CCOC(=O)c1ccc(Nc2ccc3c(c2)/C(=C/Nc2ccc(CN4CCCCC4)cc2)C(=O)NC3=O)cc1`, less than 5.00.
Still for that read-out and setting: to `O=C1NC(=O)c2ccc(Nc3ccc4c(c3)CCC4)cc2/C1=C/Nc1ccc(CN2CCCCC2)cc1` belongs 5.10.
The same measure, in the same setting: to `COc1cc(Nc2ccc3c(c2)/C(=C/Nc2ccc(CN4CCCCC4)cc2)C(=O)NC3=O)cc(C(F)(F)F)c1` belongs less than 5.00.
In turn, `O=C1NC(=O)c2ccc(Nc3ccccc3Cl)cc2/C1=C/Nc1ccc(CN2CCCCC2)cc1` had a pIC50 in series [1] of 5.78.
In the case of `Cc1ccccc1Nc1ccc2c(c1)/C(=C/Nc1ccc(CN3CCCCC3)cc1)C(=O)NC2=O`, in series [1], the pIC50 is 5.38.
`CC(=O)c1cccc(Nc2ccc3c(c2)/C(=C/Nc2ccc(CN4CCCCC4)cc2)C(=O)NC3=O)c1`: the pIC50 in series [1] was 6.36. Besides, in series [2], the Ratio IC50 was 0.72.
The molecule `N#Cc1cccc(Nc2ccc3c(c2)/C(=C/Nc2ccc(CN4CCCCC4)cc2)C(=O)NC3=O)c1` gave a negative logarithm of the IC50 (pIC50) in series [1] of 5.95.
Take `O=C1NC(=O)c2ccc(Nc3ccccc3)cc2/C1=C/Nc1ccc(CN2CCCCC2)cc1`: in series [1], the pIC50 was 6.34. Besides, the Ratio IC50 in series [2] was determined as 0.87.
In series [1], `Cc1cccc(Nc2ccc3c(c2)/C(=C/Nc2ccc(CN4CCCCC4)cc2)C(=O)NC3=O)c1` showed a pIC50 of less than 5.00.
`CCN(CC)Cc1ccc(N/C=C2\C(=O)NC(=O)c3ccc(Nc4ccc(C)cc4)cc32)cc1` showed a pIC50 in series [1] of 5.94. The Ratio IC50 in series [2] amounted to 0.64.
In series [1], `O=C1NC(=O)c2ccc(Nc3ccc4c(c3)OCO4)cc2/C1=C/Nc1ccc(CN2CCCCC2)cc1` gave a pIC50 of 6.05.
Consider `COc1cccc(Nc2ccc3c(c2)/C(=C/Nc2ccc(CN4CCCCC4)cc2)C(=O)NC3=O)c1`, for which the pIC50 in series [1] is 5.97.
Still for that read-out and setting: the value for `NC(=O)c1ccc(Nc2ccc3c(c2)/C(=C/Nc2ccc(CN4CCCCC4)cc2)C(=O)NC3=O)cc1` was 6.02; that for `COc1ccc(Nc2ccc3c(c2)/C(=C/Nc2ccc(CN4CCCCC4)cc2)C(=O)NC3=O)cc1` was 6.01.
For `O=C1NC(=O)c2ccc(Nc3cccc4ncccc34)cc2/C1=C/Nc1ccc(CN2CCCCC2)cc1`, the pIC50 in series [1] was 5.28.
In series [1], `CN(C)c1ccc(Nc2ccc3c(c2)/C(=C/Nc2ccc(CN4CCCCC4)cc2)C(=O)NC3=O)cc1` gave a pIC50 of less than 5.00.
For the molecule `CC(=O)c1cccc(Nc2ccc3c(c2)/C(=C/Nc2ccc(CN(C)C)cc2)C(=O)NC3=O)c1`, the pIC50 in series [1] was 6.05. In series [2], the Ratio IC50 was determined as 0.87.
In series [1], `COc1cccc(Nc2ccc3c(c2)/C(=C/Nc2ccccc2)C(=O)NC3=O)c1` showed a pIC50 of less than 5.00.
Consider `O=C1NC(=O)c2ccc(-c3ccoc3)cc2/C1=C/Nc1ccc(CN2CCCCC2)cc1`, for which, in series [1], the pIC50 was 6.15. The Ratio IC50 in series [2] worked out at 0.75.
In turn, `O=C1NC(=O)c2ccc(Br)cc2/C1=C/Nc1ccc(CN2CCCC2)cc1` gave a pIC50 in series [1] of 5.62.
Molecule `O=C1NC(=O)c2ccc(Nc3ccc4[nH]ccc4c3)cc2/C1=C/Nc1ccc(CN2CCCCC2)cc1` gave a pIC50 in series [1] of less than 5.00.
For `COc1ccc(Nc2ccc3c(c2)/C(=C/Nc2ccc(CN(C)C)cc2)C(=O)NC3=O)cc1`, the pIC50 in series [1] was 6.25. Besides, the Ratio IC50 in series [2] turned out to be 0.69.
In turn, `O=C1NC(=O)c2ccc(Nc3cccc(C(F)(F)F)c3)cc2/C1=C/Nc1ccc(CN2CCCCC2)cc1` gave a pIC50 in series [1] of less than 5.00.
As to `O=C1NC(=O)c2ccc(Nc3ccc(Cl)cc3)cc2/C1=C/Nc1ccc(CN2CCCCC2)cc1`, the pIC50 in series [1] was less than 5.00.
Turning to `COc1cccc(Nc2ccc3c(c2)/C(=C/Nc2ccc(CN(C)C)cc2)C(=O)NC3=O)c1`, the pIC50 in series [1] was 5.86. For the same molecule, the Ratio IC50 in series [2] came to 0.48.
